How the values were obtained:
Assay in all cases: relative viability (nuclei count vs DMSO), 5 days (fraction); higher = more cells survive
Masitinib + Navitoclax = compound: Cc1ccc(NC(=O)c2ccc(CN3CCN(C)CC3)cc2)cc1Nc1nc(-c2cccnc2)cs1 [Masitinib] + CC1(C)CCC(c2ccc(Cl)cc2)=C(CN2CCN(c3ccc(C(=O)NS(=O)(=O)c4ccc(N[C@H](CCN5CCOCC5)CSc5ccccc5)c(S(=O)(=O)C(F)(F)F)c4)cc3)CC2)C1 [Navitoclax] (partner 0.5 µM)
Procedure, shortened: (§1)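 Nuclei were stained with Hoechst during a one-step fixation (final 0.05% Triton X-100, 1% formaldehyde, 1 ug/ml Hoechst) carried out 5 days after dosing, then counted on 4× images. The cells, lung cancer lines in 1536-well plates, had been dosed by pin tool the day after seeding with one drug alone or a fixed anchor-drug dose plus five library-drug doses (not always all listed) in √10 steps. Relative viability is the nuclei count in treated wells divided by that in vehicle wells, and each value is the median of duplicate plates.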

Masitinib + Palbociclib = compound: Cc1ccc(NC(=O)c2ccc(CN3CCN(C)CC3)cc2)cc1Nc1nc(-c2cccnc2)cs1 [Masitinib] + CC(=O)c1c(C)c2cnc(Nc3ccc(N4CCNCC4)cn3)nc2n(C2CCCC2)c1=O [Palbociclib] (partner 0.5 µM)
Procedure, shortened: as §1

Masitinib + Linsitinib = compound: Cc1ccc(NC(=O)c2ccc(CN3CCN(C)CC3)cc2)cc1Nc1nc(-c2cccnc2)cs1 [Masitinib] + C[C@]1(O)C[C@@H](c2nc(-c3ccc4ccc(-c5ccccc5)nc4c3)c3c(N)nccn32)C1 [Linsitinib] (partner 1 µM)
Procedure, shortened: as §1

[1] = compound: CC1=CC(=CC=C1)NC2=NC(=CS2)C3=CC=NC=C3 + Cc1cc(Nc2cc(N3CCN(C)CC3)nc(Sc3ccc(NC(=O)C4CC4)cc3)n2)n[nH]1 [Tozasertib] (partner 0.1 µM)
Procedure, shortened: as §1

Cell Line | relative viability (Masitinib + Navitoclax; first compound 0.01 µM) | relative viability (Masitinib + Navitoclax; first compound 0.03162 µM) | relative viability (Masitinib + Navitoclax; first compound 0.1 µM) | relative viability (Masitinib + Navitoclax; first compound 0.3162 µM) | relative viability (Masitinib + Navitoclax; first compound 1 µM) | relative viability (Masitinib + Palbociclib; first compound 0.01 µM) | relative viability (Masitinib + Palbociclib; first compound 0.03162 µM) | relative viability (Masitinib + Palbociclib; first compound 0.1 µM) | relative viability (Masitinib + Palbociclib; first compound 0.3162 µM) | relative viability (Masitinib + Palbociclib; first compound 1 µM) | relative viability (Masitinib + Linsitinib; first compound 0.01 µM) | relative viability (Masitinib + Linsitinib; first compound 0.03162 µM) | relative viability (Masitinib + Linsitinib; first compound 0.1 µM) | relative viability (Masitinib + Linsitinib; first compound 0.3162 µM) | relative viability (Masitinib + Linsitinib; first compound 1 µM) | relative viability ([1]; first compound 0.08 µM) | relative viability ([1]; first compound 0.253 µM) | relative viability ([1]; first compound 0.8 µM) | relative viability ([1]; first compound 2.53 µM) | relative viability ([1]; first compound 8 µM)
HCC-827 | 0.924 | 0.996 | 1.01 | 0.942 | 1.01 | 0.395 | 0.466 | 0.389 | 0.613 | 0.441 | 1.03 | 0.969 | 0.976 | 0.935 | 0.935 | 0.415 | 0.392 | 0.45 | 0.409 | 0.391
LK-2 | 1.01 | 0.855 | 1.06 | 1.21 | 0.885 | 0.691 | 0.697 | 0.666 | 0.76 | 0.762 | 0.511 | 0.573 | 0.618 | 0.649 | 0.812 |  | 0.175 | 0.173 |  | 0.184
HCC-366 | 1.04 | 1.03 | 1.2 | 1.09 | 1 |  | 0.39 | 0.388 | 0.407 | 0.375 | 0.728 | 0.521 | 0.841 | 0.753 | 0.55 | 0.126 | 0.0811 | 0.081 | 0.0599 | 0.0456
BEN | 0.066 | 0.0657 | 0.066 | 0.0612 | 0.194 | 0.42 | 0.431 | 0.51 | 0.513 | 0.46 | 1.04 | 0.858 | 1.19 | 1.23 | 0.939 | 0.437 | 0.557 | 0.512 | 0.479 | 0.563
NCI-H2347 | 0.709 | 0.764 | 0.79 | 0.861 | 0.764 | 0.381 | 0.389 | 0.408 | 0.422 | 0.444 | 0.758 | 0.911 | 0.867 | 0.948 | 1.09 | 0.51 | 0.605 |  | 0.489 | 0.489
NCI-H1395 | 1.25 | 1.17 | 1.11 | 1.1 | 1.05 | 0.593 | 0.653 | 0.643 | 0.562 | 0.595 | 1.05 | 1.09 | 1.09 | 0.959 | 1.02 | 0.604 | 0.782 | 0.689 | 0.669 | 0.693
201T | 0.954 | 1.2 | 1.08 | 1.21 | 1.19 | 0.326 | 0.386 | 0.364 | 0.369 | 0.375 | 0.881 | 0.977 | 1.01 | 0.851 | 1.01 | 1.04 | 0.94 | 0.961 | 0.804 | 0.692
NCI-H520 | 1.21 |  | 1.17 | 1.05 | 1.08 | 0.27 | 0.21 | 0.263 | 0.243 | 0.197 | 1.12 |  | 1.15 | 0.97 | 0.915 | 0.372 | 0.458 | 0.481 | 0.514 | 0.458
NCI-H727 | 0.424 | 0.431 | 0.385 | 0.347 | 0.434 | 0.599 | 0.692 | 0.668 | 0.621 | 0.618 | 0.228 | 0.268 | 0.297 | 0.281 | 0.196 |  | 0.582 | 0.539 | 0.58 | 0.458
HCC-15 | 0.667 | 0.606 | 0.819 | 0.647 | 0.725 | 0.658 | 0.74 | 0.799 | 0.739 | 0.77 | 0.8 | 0.826 | 0.941 | 0.863 | 0.952 | 0.413 | 0.443 | 0.304 | 0.385 | 0.298
NCI-H460 | 1.22 | 0.834 | 1.27 | 1.33 | 1.26 | 0.0985 | 0.105 | 0.14 | 0.071 | 0.126 | 0.934 | 0.934 | 0.977 | 1.26 | 1.07 | 0.486 | 0.337 | 0.395 | 0.0737 | 0.113
EPLC-272H | 1.08 | 1.13 | 1.08 | 1.23 | 1.06 | 0.299 | 0.331 | 0.327 | 0.295 | 0.329 | 1.08 | 1.26 | 1.19 | 1.18 | 1.01 | 0.294 | 0.206 | 0.248 | 0.313 | 0.51
